For data set [1] the following is noted: below about 85°; cited from earlier work.
Data set [2] in a line: Thermal stability of crystal forms upon heating (Table 4).
The nature of data set [3]: Stability and hygroscopicity of linezolid Form VI stored at 0-100% relative humidity. The format is physicochemical. Here is the method:
The stability and hygroscopicity of linezolid Form VI was tested by storing it for 19 days at a relative humidity of between 0 and 100% at room temperature.

Data set [4] is described as follows: Stability of linezolid Form X stored at 0-100% relative humidity. The class given is physicochemical. Here is the method:
The stability of linezolid Form X was tested by storing it for 8 days at a relative humidity of between 0 and 100% at room temperature.

Where [5] appears, read: 19 days, room temperature, relative humidity 80%.
Setting [6] is: 19 days, room temperature, relative humidity 100%.
[7] abbreviates: 8 days, room temperature, relative humidity 100%.

Molecules are shown by their SMILES.

Regarding `CC(=O)NC[C@H]1CN(c2ccc(N3CCOCC3)c(F)c2)C(=O)O1` [Form II], the “Relative stability of the crystal form” value in data set [1] is “most stable form”.

Regarding `CC(=O)NC[C@H]1CN(c2ccc(N3CCOCC3)c(F)c2)C(=O)O1` [Form TIII, (S)—N-[[3-[3-Fluoro-4-(4-morpholinyl)phenyl]-2-oxo-5-oxazo-lidinyl]methyl]-acetamide], the “Crystal form after heating” value in data set [2] (heating temp. 60 °C, listed as TIII) is “TIII”; in data set [2] (heating temp. 130 °C), “TIII”.

On to `CC(=O)NC[C@H]1CN(c2ccc(N3CCOCC3)c(F)c2)C(=O)O1` [Form V, (S)—N-[[3-[3-Fluoro-4-(4-morpholinyl)phenyl]-2-oxo-5-oxazo-lidinyl]methyl]-acetamide], for which the “Thermal stability (transformation into other forms upon heating)” value in data set [2] (heating at about 60° C. to about 130° C.) is listed as “thermally stable”.

For the compound `CC(=O)NC[C@H]1CN(c2ccc(N3CCOCC3)c(F)c2)C(=O)O1` [Form VI, (S)—N-[[3-[3-Fluoro-4-(4-morpholinyl)phenyl]-2-oxo-5-oxazo-lidinyl]methyl]-acetamide], the Solvent content in data set [3] (19 days, room temperature, relative humidity 0%) is 0.4%; in data set [3] (19 days, room temperature, relative humidity 20%), 0.4%; in data set [3] (19 days, room temperature, relative humidity 40%), 0.4%; in data set [3] (19 days, room temperature, relative humidity 60%), 0.3%; in data set [3] (setting [5]), 31.7%; in data set [3] (setting [6]) it was 53.2%. This compound also gave a Solvent content in data set [3] (As is (before storage)) of 0.9%. Further, the “Crystal Form” value in data set [3] (setting [5]) is on record as “VI + Amorphous”; in data set [3] (setting [6]), “Amorphous”. Further, the water content in data set [3] (As is (before storage)) turned out to be 0.7%. Moreover, the Form conversion entry in data set [3] (at 80-100% RH) is “converts to Amorphous Linezolid”. For the same compound, the Stability and hygroscopicity entry in data set [3] (between 0-60% RH) is “stable and non-hygroscopic”. The Hygroscopicity entry in data set [3] (on high relative humidity) was “hygroscopic”.

Turning to `CC(=O)NC[C@H]1CN(c2ccc(N3CCOCC3)c(F)c2)C(=O)O1` [Form X, (S)—N-[[3-[3-Fluoro-4-(4-morpholinyl)phenyl]-2-oxo-5-oxazo-lidinyl]methyl]-acetamide], the Solvent content in data set [4] (8 days, room temperature, relative humidity 0%) came to 1.6%; in data set [4] (8 days, room temperature, relative humidity 20%), 1.5%; in data set [4] (8 days, room temperature, relative humidity 40%), 1.4%; in data set [4] (8 days, room temperature, relative humidity 60%) it was 2.0%; in data set [4] (8 days, room temperature, relative humidity 80%), 2.4%; in data set [4] (setting [7]), 0.7%. Besides, the Solvent content in data set [4] (As is (before storage)) is 1.9 (water content 1.9) %. For the same compound, the “Crystal Form” value in data set [4] (setting [7]) is on record as “Form X + II”. Moreover, in data set [4] (As is (before storage)), the water content is reported as 1.9 (water content 1.9) %. The Form conversion entry in data set [4] (at 100% RH) was “some of Form X converts to Form II”. Besides, the Stability entry in data set [4] (between 0-80% RH) is given as “stable”. Moreover, the “Crystal form after heating” value in data set [2] (heating temp. 60 °C, listed as X) was “Amorphous”.

The values above are taken from patent US20060111350A1, “Solid forms of linezolid and processes for preparation thereof” (priority 2004, published 2006).
